“And” between values parts separate entries of the source, which are not always exact repeats. Equal entries are not always repeated.
Key:
Cal27 cells [1] = assay: Wound healing assay; assay type: cell-based, human; details: 1-4 μM, 24 h
Experimental: Cal27 cells in the logarithmic growth phase were inoculated into 6-well plates and cultured until the cells fused into a monolayer. A linear wound was then formed by scratching vertically with a 200 μL sterilized gun tip. The cells were washed 3 times with PBS to remove scraped off cells, and each well was incubated by adding medium. The initial scratched area was recorded with a microscope. Then different concentrations of the compounds to be tested were added, and the area of the scratches was recorded by microscopy 24 h later.

c-MYC = assay: RT-qPCR of c-MYC transcription in Cal27 cells; assay type: cell-based, human; details: Cal27, 24 h
Experimental: Cal27 cells were plated in a 6-well plate and incubated for 12 h at 37 °C in a humidified atmosphere with 5% CO2, then compound 7be was added at final concentrations of 1 μM, 2 μM, 3 μM and 4 μM. After incubation for 24 h, cells were harvested, and the RNA was extracted according to the manufacturer’s instructions. Total RNA was used as a template for reverse transcription. The cDNA was obtained and applied directly for further qPCR. According to the manufacturer’s protocol, the real-time PCR was performed on a real-time PCR apparatus. The total volume of 20 μL of quantitative reaction mixtures contained 10 μL of SYBR Green qPCR Mix, 0.4 μL PCR Forward Primer (10 μM), 0.4 μL PCR Reverse Primer (10 μM) and 2 μL of cDNA (Table S4). The c-MYC mRNA levels were normalized to the GAPDH mRNA level of each sample. Results of real-time PCR were analyzed using the 2^−ΔCt method.

Cal27 cells [2] = assay: Colony formation assay; assay type: cell-based, human; details: Cal27, tested 0.5, 1, 1.5 μM
Experimental: The colony formation assay was used to evaluate the antiproliferative effect of compound 7be on Cal27 cells. Cal27 cells were grown in 6-well plates at a density of 700 cells per well and then treated with different concentrations of compound 7be for 48 h. The treatment medium was removed and fresh medium was added. After 2 weeks of culture, cells were fixed with 4% paraformaldehyde for 8 min and stained with crystal violet solution (10%). Finally, they were imaged with a camera.

[3] = tested on: human oral cancer Cal27 xenograft tumor; assay: In vivo antitumor activity, Cal27 xenograft; set-up: species or system BALB/c nude mice; details: for relative tumor proliferation rate / tumor suppression rate / tumor growth inhibition (TGI): 21 days
Experimental: Nude mouse organ and tumor tissues fixed with neutral formalin solution were paraffin-embedded according to the conventional processing method. Sections were cut to a thickness of approximately 5 μm, placed on glass slides and dewaxed in an oven at 60 °C, stained for H&E and immunohistochemistry and finally visualized with the Cytation 5 imaging system.
For this assay, 130 SPF-grade BALB/c mice (female, 4–6 weeks old, 18–20 g) were obtained from Chang Zhou Cavens Laboratory Animal Ltd. (Changzhou, China). The in vivo activity experiments were commissioned by Nanjing OG Pharmaceuticals, Co., Ltd. (Nanjing, China) All mice were housed in plastic cages, fed, and watered under standard conditions and air filtration (22 ± 2 °C; 12 h light/dark cycles). Under aseptic conditions, human oral cancer Cal27 cells were inoculated subcutaneously in the right axilla of BALB/c nude mice. When the tumors had grown to about 85 mm^3, 24 […] mice with good growth status and good homogeneity of tumor size were selected and randomly divided into the following four groups of six mice each: (1) the model group; (2) the low-dose group; (3) the high-dose group; and (4) the positive drug group. The drug dose in the low-dose group was 10 mg/kg, which was injected intraperitoneally once every other day, for the duration of 21 days of administration; the drug dose in the high-dose group was 20 mg/kg, which was injected intraperitoneally once every other day, for the duration of 21 days of administration; and the drug dose in the cisplatin group was 2 mg/kg, which was injected intraperitoneally once every other day, for the duration of 21 days of administration. Normal tissues of the heart, liver, spleen, lung and kidney and half of the tumor tissues were fixed with 4% formalin solution and embedded in paraffin for histological analysis; the other half of the tumor tissues were preserved in liquid nitrogen, and the supernatant was extracted after milling the tissues and detected by Western blot.

[4] = 10 mg/kg i.p. once every other day
[5] = 20 mg/kg i.p. once every other day

Cc1cc(C)c2c(n1)S(=O)(=O)c1c-2nc(NCCN2CCCCC2)c2ccccc12 [7be, 7,9-Dimethyl-5-((2-(piperidin-1-yl)ethyl)amino) pyrido[3′,2′:4,5]thieno[3,2-c]isoquinoline 11,11-dioxide]
migration of Cal27 cells (in words) (Cal27 cells [1]): effectively inhibit migration
concentration needed to significantly inhibit the transcription of c-MYC (c-MYC): 8 µM
concentration completely suppressing colony formation ability (Cal27 cells [2]): 1.5 µM
relative tumor proliferation rate [3, 4]: 52.0%
tumor suppression rate / tumor growth inhibition (TGI) [3, 4]: 48.53% and 48.5%
relative tumor proliferation rate [3, 5]: 34.1%
tumor suppression rate / tumor growth inhibition (TGI) [3, 5]: 64.7% and 64.73%
expressions of p62, COX-2 and Bcl-2 in tumor tissue ([3]; 20 mg/kg, Western blot of tumor tissue): decreased
percentage of Ki67-positive cells in tumor tissue ([3]; Ki67 immunostaining): decreased
